Laboratory results from ChEMBL document CHEMBL1201862, “PubChem BioAssay data set” (2004).
Activity calls are given as the source filed them.

Assays:
[1] = target: T1, G-protein coupled receptor 35 (Homo sapiens, UniProt Q9HC97); experiment: SAR analysis of Agonists of the GPR35 Receptor using an Image-Based Assay - Set 4. [Related pubchem assays (depositor defined):AID2013, AID2026]; type: functional
Cannabinoid receptor 1 [2] = target: T2, Cannabinoid receptor 1 (Homo sapiens, UniProt P21554); experiment: SAR analysis of agonists of the Cannabinoid Receptor 1 using an Image-Based Assay - Set 4. [Related pubchem assays (depositor defined):AID2013, AID2026]; type: functional
T2 sequence (P21554 whole entry): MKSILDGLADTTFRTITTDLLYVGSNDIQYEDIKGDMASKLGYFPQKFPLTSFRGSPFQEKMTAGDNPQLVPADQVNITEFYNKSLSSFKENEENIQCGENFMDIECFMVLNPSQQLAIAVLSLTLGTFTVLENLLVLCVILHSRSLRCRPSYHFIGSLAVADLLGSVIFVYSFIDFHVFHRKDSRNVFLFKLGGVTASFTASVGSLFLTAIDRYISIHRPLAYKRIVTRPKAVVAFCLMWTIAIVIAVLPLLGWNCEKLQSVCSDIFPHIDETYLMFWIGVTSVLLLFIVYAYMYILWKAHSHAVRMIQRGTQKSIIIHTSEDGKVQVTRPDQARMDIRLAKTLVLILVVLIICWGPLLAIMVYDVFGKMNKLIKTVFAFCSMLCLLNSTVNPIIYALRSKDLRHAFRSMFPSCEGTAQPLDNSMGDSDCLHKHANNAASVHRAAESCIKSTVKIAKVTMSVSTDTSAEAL

[3] = target: T1, G-protein coupled receptor 35; experiment: SAR analysis of Antagonists of the GPR35 Receptor using an Image-Based Assay - Set 6. [Related pubchem assays (depositor defined):AID2013, AID2026]; type: functional
Cannabinoid receptor 1 [4] = target: T2, Cannabinoid receptor 1; experiment: SAR analysis of antagonists of the Cannabinoid Receptor 1 using an Image-Based Assay - Set 4. [Related pubchem assays (depositor defined):AID2013, AID2026]; type: functional
[5] = target: G-protein coupled receptor 55 (Homo sapiens, UniProt Q9Y2T6); experiment: SAR Analysis of Selective Antagonists of GPR55 using an Image-Based Assay - Set 4. [Related pubchem assays (depositor defined):AID2013, AID2026]; type: functional;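 note: antagonism of response to 5 µM lysophosphatidylinositol agonist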
Chain of G-protein coupled receptor 55 (Q9Y2T6 whole entry): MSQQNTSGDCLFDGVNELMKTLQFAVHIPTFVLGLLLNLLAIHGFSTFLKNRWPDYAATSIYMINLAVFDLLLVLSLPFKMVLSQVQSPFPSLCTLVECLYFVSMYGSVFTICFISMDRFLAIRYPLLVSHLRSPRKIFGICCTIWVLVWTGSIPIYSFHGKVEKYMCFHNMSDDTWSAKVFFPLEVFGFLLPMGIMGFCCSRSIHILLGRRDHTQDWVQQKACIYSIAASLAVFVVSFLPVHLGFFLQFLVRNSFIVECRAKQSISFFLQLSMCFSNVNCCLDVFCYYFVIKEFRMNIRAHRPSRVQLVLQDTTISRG

Cannabinoid receptor 2 [6] = target: T3, Cannabinoid receptor 2 (Homo sapiens, UniProt P34972); experiment: SAR analysis of antagonists of the Cannabinoid Receptor 2 using an Image-Based Assay - Set 3. [Related pubchem assays (depositor defined):AID2013, AID2026]; type: functional
T3 sequence (P34972 whole entry): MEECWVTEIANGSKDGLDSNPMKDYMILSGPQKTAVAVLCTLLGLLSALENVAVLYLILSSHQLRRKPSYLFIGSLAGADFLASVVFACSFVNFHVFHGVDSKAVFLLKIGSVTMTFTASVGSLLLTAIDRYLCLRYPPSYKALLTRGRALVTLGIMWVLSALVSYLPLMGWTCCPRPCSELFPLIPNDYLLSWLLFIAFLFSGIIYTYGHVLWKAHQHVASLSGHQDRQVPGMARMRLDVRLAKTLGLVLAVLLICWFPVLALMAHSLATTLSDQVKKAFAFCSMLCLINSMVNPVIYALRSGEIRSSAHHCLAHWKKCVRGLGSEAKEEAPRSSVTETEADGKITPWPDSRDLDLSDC

Cannabinoid receptor 2 [7] = target: T3, Cannabinoid receptor 2; experiment: SAR analysis of agonists of the Cannabinoid Receptor 2 using an Image-Based Assay - Set 3. [Related pubchem assays (depositor defined):AID2013, AID2026]; type: functional
[8] = inhibitors of firefly luciferase expression or activity, dose response, H4 neuroglioma cells, luminescence (AID 1990); type: functional, cell-based
[9] = system: Streptococcus sp. 'group A'; experiment: growth inhibition of control SK(-) GAS strain, dose response, counter-screen for streptokinase expression inhibitor project, luminescence, kanamycin, BacTiterGlo, confirmation (AID 1900); type: functional, organism-based
[10] = Luminescence Cell-Based Dose Response HTS to Identify Inhibitors of 5'UTR Stem-Loop Driven Prion Protein mRNA Translation in H4 Neuroglioblastoma Cells. [Related pubchem assays: 1827 (Project Summary), 1813 (Primary HTS)]; type: functional
[11] = inhibitors of SNCA 5'UTR-driven reporter translation, confirmation, H4 neuroglioma cells, luminescence (AID 1988); type: functional, cell-based
Streptococcus = experiment: Group A Streptococcus viability loss, dose response, counter-screen for streptokinase expression inhibitor project, luminescence, BacTiterGlo (AID 1915); type: functional, organism-based;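 note: potency for reduction of bacterial viability or growth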
Bcl-2-related protein A1 = target: T4, Bcl-2-related protein A1 (Mus musculus, UniProt Q07440); type: functional;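 note: confirmatory dose–response counterscreen on Bfl-1, used to check hits from a UBC13 polyubiquitin inhibitor campaign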
T4 sequence (Q07440 whole entry): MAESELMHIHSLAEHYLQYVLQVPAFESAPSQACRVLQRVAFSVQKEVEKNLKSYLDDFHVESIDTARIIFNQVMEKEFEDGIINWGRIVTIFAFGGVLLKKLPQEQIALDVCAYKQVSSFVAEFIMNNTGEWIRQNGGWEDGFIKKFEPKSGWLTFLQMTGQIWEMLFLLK

[12] = target: T5, Ubiquitin-conjugating enzyme E2 N (Homo sapiens, UniProt P61088); type: functional
T5 sequence (P61088 whole entry): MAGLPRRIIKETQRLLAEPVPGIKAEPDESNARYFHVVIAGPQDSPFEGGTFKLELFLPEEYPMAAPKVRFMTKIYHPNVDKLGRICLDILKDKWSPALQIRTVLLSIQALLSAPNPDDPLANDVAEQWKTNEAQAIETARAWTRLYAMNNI

[13] = target: T5, Ubiquitin-conjugating enzyme E2 N; type: functional; remark: listed apart in the source
Nonstructural protein 1 = Nonstructural protein 1 (Influenza A virus, UniProt Q194T2); type: functional, Influenza A virus (A/California/07/2009(H1N1))
Chain of Nonstructural protein 1 (Q194T2 whole entry): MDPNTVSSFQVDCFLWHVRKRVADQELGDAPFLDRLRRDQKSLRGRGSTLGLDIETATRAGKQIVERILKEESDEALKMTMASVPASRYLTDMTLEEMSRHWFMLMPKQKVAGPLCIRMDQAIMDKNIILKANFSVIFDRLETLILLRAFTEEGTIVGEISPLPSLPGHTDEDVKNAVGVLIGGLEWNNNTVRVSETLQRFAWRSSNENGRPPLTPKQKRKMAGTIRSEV

[14] = target: T6, Apoptotic protease-activating factor 1 (Homo sapiens, UniProt O14727); type: functional
T6 sequence (O14727 whole entry): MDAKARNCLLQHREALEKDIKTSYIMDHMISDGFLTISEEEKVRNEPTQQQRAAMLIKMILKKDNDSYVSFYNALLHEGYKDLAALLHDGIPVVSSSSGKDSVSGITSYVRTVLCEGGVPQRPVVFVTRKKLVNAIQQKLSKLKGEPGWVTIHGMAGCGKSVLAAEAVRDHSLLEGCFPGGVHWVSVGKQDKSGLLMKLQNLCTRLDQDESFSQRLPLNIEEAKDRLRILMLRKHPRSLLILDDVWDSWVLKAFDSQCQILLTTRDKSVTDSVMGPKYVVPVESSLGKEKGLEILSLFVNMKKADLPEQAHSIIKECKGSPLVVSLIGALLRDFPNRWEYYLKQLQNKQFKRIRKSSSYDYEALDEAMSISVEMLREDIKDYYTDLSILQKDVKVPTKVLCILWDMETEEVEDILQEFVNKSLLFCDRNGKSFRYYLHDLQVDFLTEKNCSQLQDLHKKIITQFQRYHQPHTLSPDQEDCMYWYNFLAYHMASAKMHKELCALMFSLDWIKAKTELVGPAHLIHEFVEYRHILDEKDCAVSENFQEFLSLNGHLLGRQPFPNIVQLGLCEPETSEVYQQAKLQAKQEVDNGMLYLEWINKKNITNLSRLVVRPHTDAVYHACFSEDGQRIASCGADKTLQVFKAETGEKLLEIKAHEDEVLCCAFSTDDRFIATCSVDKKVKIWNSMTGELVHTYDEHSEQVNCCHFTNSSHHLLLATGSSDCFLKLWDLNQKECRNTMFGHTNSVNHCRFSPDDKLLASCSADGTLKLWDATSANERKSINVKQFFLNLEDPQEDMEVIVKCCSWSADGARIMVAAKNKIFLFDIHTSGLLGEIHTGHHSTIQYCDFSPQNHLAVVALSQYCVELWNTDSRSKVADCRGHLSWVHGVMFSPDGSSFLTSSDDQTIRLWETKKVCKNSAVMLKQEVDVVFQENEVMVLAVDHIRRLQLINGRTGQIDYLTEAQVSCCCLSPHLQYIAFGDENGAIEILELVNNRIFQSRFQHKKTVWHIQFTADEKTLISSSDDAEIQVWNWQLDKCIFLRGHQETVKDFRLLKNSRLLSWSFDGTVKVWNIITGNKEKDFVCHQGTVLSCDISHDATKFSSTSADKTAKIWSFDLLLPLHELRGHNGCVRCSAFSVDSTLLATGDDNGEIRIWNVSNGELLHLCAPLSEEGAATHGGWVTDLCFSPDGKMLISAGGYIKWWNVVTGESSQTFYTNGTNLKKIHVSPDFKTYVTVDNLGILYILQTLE

T1 sequence (Q9HC97 whole entry): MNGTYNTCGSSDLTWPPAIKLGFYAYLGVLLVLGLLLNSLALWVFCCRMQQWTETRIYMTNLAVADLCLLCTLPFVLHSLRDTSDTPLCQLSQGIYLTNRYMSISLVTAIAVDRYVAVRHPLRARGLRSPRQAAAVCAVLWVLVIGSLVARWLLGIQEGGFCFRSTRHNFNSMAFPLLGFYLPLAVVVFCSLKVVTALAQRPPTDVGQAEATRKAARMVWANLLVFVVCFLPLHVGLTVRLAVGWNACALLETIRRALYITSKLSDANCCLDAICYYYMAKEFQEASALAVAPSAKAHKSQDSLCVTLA

SMILES	EC50 [1]	EC50 (Cannabinoid receptor 1 [2])	IC50 [3]	IC50 (Cannabinoid receptor 1 [4])	IC50 [5]	IC50 (Cannabinoid receptor 2 [6])	EC50 (Cannabinoid receptor 2 [7])	EC50 [8]	EC50 [9]	EC50 [10]	EC50 [11]	EC50 (Streptococcus)	IC50 (Bcl-2-related protein A1)	IC50 [12]	IC50 [13]	IC50 (Nonstructural protein 1)	IC50 [14]
Cc1ccc2nc(-c3ccccn3)cc(C(=O)Nc3ccc(S(=O)(=O)N4CCOCC4)cc3)c2c1	> 32 µM (inactive)	> 32 µM (inactive)	> 32 µM (inactive)	5.37 µM (active)	> 32 µM (inactive)	> 32 µM (inactive)	> 32 µM (inactive)										
N=C(N)N/N=C/c1ccc(OCc2ccccc2)c(OCc2ccccc2)c1								8.78 µM (active)	5.75 µM (active)	> 120 µM (not active)	19.9 µM (active)	8.86 µM (active)	16 µM (active)	6.15 µM (active)	5.05 µM (active)	49 µM (active)	> 100 µM (inactive)
